US7517889B2, “2,6-substituted-4-monosubstitutedamino-pyrimidine as prostaglandin D2 receptor antagonists” (Aventis Pharmaceuticals, Inc., priority 2004, dated 2009)
Structures can show the parent of a compound that is named as a salt.

molecular target: T1, DP receptor (Homo sapiens, UniProt Q13258); assay: SPA cAMP assay in human LS174 T cells (human DP functional assay); type: cell-based; settings: inhibition of PGD2 (15 nM final) stimulated cAMP, LS174T cells expressing endogenous DP receptor
T1 construct: the human cell line LS174T, which expresses the endogenous DP receptor; endogenous in cells; host or cells: LS174T human cell line
T1 sequence (Q13258 1-359): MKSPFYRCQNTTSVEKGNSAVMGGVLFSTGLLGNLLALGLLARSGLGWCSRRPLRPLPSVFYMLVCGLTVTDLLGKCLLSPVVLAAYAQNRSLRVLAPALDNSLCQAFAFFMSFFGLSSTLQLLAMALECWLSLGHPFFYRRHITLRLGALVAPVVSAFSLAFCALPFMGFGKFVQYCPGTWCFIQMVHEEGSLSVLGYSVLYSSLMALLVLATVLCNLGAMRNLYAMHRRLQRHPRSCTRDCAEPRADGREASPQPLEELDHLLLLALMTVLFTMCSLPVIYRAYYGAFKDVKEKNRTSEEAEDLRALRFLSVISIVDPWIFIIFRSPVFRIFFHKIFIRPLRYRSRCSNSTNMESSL
Method in brief: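 LS174T cells with endogenous DP receptor, 45,000/well seeded overnight, exposed to compounds at 11 points for 15 min at 37 °C in buffer containing IBMX, with PGD2 stimulation.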

| IC50 [nM] | SMILES |
| --- | --- |
| 0.1 | CCS(=O)(=O)NC(=O)C(F)(F)c1cccc(-c2cc(NCCc3ccc(Cl)cc3Cl)nc(OC)n2)c1 [Example 81(b), Ethanesulfonic acid [2-(3-{6-[2-(2,4-dichloro-phenyl)-ethylamino]-2-methoxy-pyrimidin-4-yl}-phenyl)-2,2-difluoro-acetyl]-amide] |
| 7.6 | CCNC(=O)Nc1cccc(-c2cc(NCCc3ccc(OC)cc3)nc(OC)n2)c1 [Example 41, 1-Ethyl-3-(3-{2-methoxy-6-[2-(4-methoxy-phenyl)-ethylamino]-pyrimidin-4-yl}-phenyl)-urea] |
| 0.4 | COc1nc(NCCc2ccc(OC)c(F)c2)cc(-c2cccc(-c3nn[nH]n3)c2)n1 [Example 40, [2-(3-Fluoro-4-methoxy-phenyl)-ethyl]-{2-methoxy-6-[3-(2H-tetrazol-5-yl)-phenyl]-pyrimidin-4-yl}-amine] |
| 10 | COc1ccc(CCNc2cc(-c3cccc(CNCCc4ccc(O)cc4)c3)nc(OC)n2)cc1 [Example 13(c), 4-[2-(3-{2-Methoxy-6-[2-(4-methoxy-phenyl)-ethylamino]-pyrimidin-4-yl}-benzylamino)-ethyl]-phenol hydrochloride] |
